Test results as given in patent US12599575B2, “Antimicrobial adjuvant containing biphenyl derivative compound as active ingredient, and uses thereof” (KOREA RESEARCH INSTITUTE OF BIOSCIENCE AND BIOTECHNOLOGY, priority 2021, dated 2026).
Entries after “also recorded” stand apart in the source; their conditions may differ.

System: Acinetobacter baumannii colistin resistance 357 (R357 strains)
Assay type: cell-based

| Compound | cell growth inhibitory effect (respiration rate), PA108 alone (PA108 5 μM alone) | bacterial growth inhibitory effect (relative respiration rate) in combination with PMB (compound 5 μM + PMB 16 μg/mL, 37° C., 24 hours) | cell growth inhibitory effect (respiration rate), PMB alone (PMB 16 μg/mL alone) |
| --- | --- | --- | --- |
| Cc1cc([N+](=O)[O-])cc(-c2ccc(Cl)cc2)c1O [PA108] | no self cell growth inhibitory effect | an activity to improve bacterial susceptibility to a polymyxin-based antibiotic; also recorded: cellular respiration was effectively inhibited | – |
| polymyxin B [PMB, reference compound] | – | – | no cell growth inhibitory effect |
